Values quoted from earlier work, collected in patent US5468754A, “11,7 substituted camptothecin derivatives and formulations of 11,7 substituted camptothecin derivatives and methods for uses thereof” (priority 1994, dated 1995).
“Also recorded” adds a separate entry of the source. Where two headings read alike, the source gives them in different places.

Columns and labels:
[1] = cited from earlier work
Colon cancer = details: Shimada et al; 100 mg/m^2/week or 150 mg/m^2/Q 2 wks; 17 pts; cited from earlier work
Mesothelioma = details: Clavel et al, 90 min QDx3 Q21 days; cited from earlier work
[2] = system: Human lung cancer cell lines; details: human lung cancer cell lines vs normal cells; cited from earlier work
[3] = patients; cited from earlier work
Leukemia/Lymphoma = details: Ohono et al, cited from earlier work
[4] = compared with parent compound camptothecin; cited from earlier work
cervix = details: cited from earlier work
[5] = system: Untreated Non Small Cell Lung Cancer; details: Fukuoka et al; 100 mg/m^2; 73 pts; cited from earlier work
[6] = system: Topoisomerase I, purified from calf thymus; details: cited from earlier work
[7] = cited from earlier work; remark: listed apart in the source
renal = details: Culine et al, 90 min, 150 mg/m2/wk (50-150); cited from earlier work
[8] = Ohe et al; 120 hr infusion Q3 wks, 40 mg/m2/d (5-40); cited from earlier work
[9] = system: Refractory or Relapsed Small Cell Lung Cancer; details: Masudu et al; 100 mg/m^2 weekly; 16 pts; cited from earlier work
ovarian = details: Culine et al, 90 min, 150 mg/m2/wk (50-150); cited from earlier work
[10] = cited from earlier work; remark: listed apart in the source
[11] = system: Topoisomerase I, purified from human colon carcinoma cells; details: cited from earlier work
Colon Ca = details: cited from earlier work
Cervical cancer = details: Takeuchi et al; 100 mg/m^2 weekly, 150 mg/m^2 weeks; 69 pts; cited from earlier work
esophagus = details: Culine et al, 90 min, 150 mg/m2/wk (50-150); cited from earlier work
Breast = details: Clavel et al, 90 min QDx3 Q21 days; cited from earlier work
[12] = compared with parent compound camptothecin; cited from earlier work; remark: listed apart in the source
Small Cell Lung Cancer = details: Negoro et al, 100 mg/m^2/week, 41 pts, cited from earlier work
[13] = 5-day continuous intravenous infusion; cited from earlier work
[14] = system: xenografts of human tumors; details: Kawato et al., nude mice; cited from earlier work
[15] = Clavel et al, 90 min, QDx3 Q21 days, 115 mg/m2/d (33-115), 37 pts
[16] = Culine et al, 90 min, Q21 days, 150 mg/m2/wk (50-150), 59 pts
[17] = Negoro et al, 30 min infusion weekly, 100 mg/m2 (50-150), 17 pts
[18] = Ohe et al, 120 hr CI Q3 wks, 40 mg/m2/d (5-40), 36 pts
[19] = Rothenberg et al, QWx4 Q42 days, 180 mg/m2/wk (50-180), 32 pts
[20] = Rowinsky et al, 90 min infusion Q21 day, 240 mg/m2 (100-345), 32 pts
[21] = Negoro et al, Small Cell Lung Cancer, 100 mg/m^2/week
[22] = Ohono et al, Leukemia/Lymphoma, 62 pts
[23] = Shimada et al, Colon cancer, 17 pts
[24] = Takeuchi et al, Cervical cancer, 69 pts

Structure (SMILES): CCc1c2c(nc3ccc(OC(=O)N4CCC(N5CCCCC5)CC4)cc13)-c1cc3c(c(=O)n1C2)COC(=O)[C@]3(O)CC [CPT-11]
- Fractional amount of lactone species, CPT-11 CpMax Based ([1]; 50 mg/m2 single dose I.V.): 0.51
- Fractional amount of lactone species, CPT-11 CpMax Based ([1]; 80 mg/m2 single dose I.V.): 0.44
- Fractional amount of lactone species, CPT-11 CpMax Based ([1]; 100 mg/m2 single dose I.V.): 0.53
- Fractional amount of lactone species, CPT-11 CpMax Based ([1]; 125 mg/m2 single dose I.V.): 0.55
- Fractional amount of lactone species, CPT-11 CpMax Based ([1]; 150 mg/m2 single dose I.V.): 0.42
- Fractional amount of lactone species, CPT-11 CpMax Based ([1]; 180 mg/m2 single dose I.V.): 0.42
- overall fractional concentration of the lactone species ([1]; through a range of doses, total AUC and CpMax data): fairly constant through a range of doses
- RESPONSE (Colon cancer): 46%
- RESPONSE (PR, patients) (Colon cancer): 6/17
- Tumor response (partial responses) (Mesothelioma): 1 PR
- conversion of CPT-11 to SN38 [2]: convert less CPT-11 to SN38 than normal cells
- variability of metabolic conversion of CPT-11 to SN38 [3]: large range of interpatient variability; also recorded: varies from patient to patient
- RESPONSE (RR) (Leukemia/Lymphoma; 20 mg/m^2 bid x7): 25 % RR
- RESPONSE (PR) (Leukemia/Lymphoma; 40 mg/m^2 x5): 34 % PR
- RESPONSE (Leukemia/Lymphoma; 200 mg Q3): No resp.
- antitumor activity [4]: retain the significant antitumor activity of the parent compound
- Tumor response (partial responses) (cervix; Culine et al, cervix, 90 min, 150 mg/m2/wk (50-150)): 1 PR
- Tumor response (partial responses) (cervix; Rowinsky et al, Cervix Ca, 90 min infusion Q21 day, 240 mg/m2 (100-345)): 1 PR
- RESPONSE (PRs) [5]: 31.9%
- RESPONSE (PRs, patients) [5]: 23/72
- inhibition of Topoisomerase I [6]: inhibited
- Toxicity [7, 15]: diarrhea; also recorded: nausea; also recorded: vomiting; also recorded: alopecia
- Toxicity (Dose Limiting Toxicity) [7, 15]: Neutropenia
- Toxicity [7, 16]: vomiting; also recorded: alopecia; also recorded: fatigue; also recorded: stomatitis
- Toxicity (Dose Limiting Toxicity) [7, 16]: Neutropenia; also recorded: diarrhea
- Toxicity [7, 17]: N/V and alopecia and liver
- Toxicity (Dose Limiting Toxicity) [7, 17]: Neutropenia; also recorded: Diarrhea
- Toxicity [7, 18]: nausea; also recorded: vomiting; also recorded: thromobo-; also recorded: anemia; also recorded: liver
- Toxicity (Dose Limiting Toxicity) [7, 18]: Diarrhea
- major reported, dose-limiting toxicities ([7]; Phase I and Phase II clinical trials of CPT-11): Neutropenia and diarrhea
- Toxicity [7, 19]: Neutropenia; also recorded: nausea; also recorded: vomiting; also recorded: alopecia
- Toxicity (Dose Limiting Toxicity) [7, 19]: Diarrhea
- Toxicity [7, 20]: vomiting and diarrhea and pain and flushing
- Toxicity (Dose Limiting Toxicity) [7, 20]: Neutropenia
- Tumor response (partial responses) (renal): 1 PR
- Tumor response [8]: None
- RESPONSE (PRs) [9]: 47%
- RESPONSE (PRs, patients) [9]: 7/15
- Tumor response (partial responses) (ovarian): 1 PR
- Toxicity ([10]; Fukuoka et al, Untreated Non Small Cell Lung Cancer, 100 mg/m^2): Neutropenia; also recorded: diarrhea; also recorded: nausea; also recorded: vomiting; also recorded: anorexia; also recorded: alopecia
- pneumonitis ([10]; Masudu et al, 100 mg/m^2 weekly, 16 pts): 12.5%
- Toxicity ([10]; Masudu et al, Refractory or Relapsed Small Cell Lung Cancer, 100 mg/m^2 weekly): Neutropenia; also recorded: diarrhea
- N/V [10, 21]: 61.5%
- alopecia [10, 21]: 40.0%
- diarrhea [10, 21]: 53.8%
- Gastrointestinal [10, 22]: 76%
- Toxicity [10, 22]: Thromocytopenia
- N/V [10, 23]: 35%
- diarrhea [10, 23]: 24%
- N/V [10, 24]: 51%
- alopecia [10, 24]: 38.1%
- diarrhea [10, 24]: 39.1%
- inhibition of Topoisomerase I [11]: inhibited
- Tumor response (partial responses) (Colon Ca; Rothenberg et al, QWx4 Q42 days, 180 mg/m2/wk (50-180)): 2 PRs
- Tumor response (partial responses) (Colon Ca; Rowinsky et al, 90 min infusion Q21 day, 240 mg/m2 (100-345)): 1 PR
- RESPONSE (CR) (Cervical cancer): SCR
- RESPONSE (PR) (Cervical cancer): 8 PR
- RESPONSE (RR) (Cervical cancer): 23.6%
- Tumor response (partial responses) (esophagus): 1 PR
- Tumor response (partial responses) (Breast): 1 PR
- Toxicity [12]: less sporadic toxicities
- RESPONSE (Small Cell Lung Cancer; 2 CRs and 7 PRs): 33.3%
- RESPONSE (CRs) (Small Cell Lung Cancer): 2 CRs
- RESPONSE (PRs) (Small Cell Lung Cancer): 7 PRs
- conversion of CPT-11 to SN38 [13]: saturable process
- sensitivity of human tumors vs their ability to produce SN38 [14]: independent of their ability to produce SN38
